{"source": "patent US20100022582A1", "about": "“Tetrahydroisoquinoline Compound and Medicinal Use Thereof” (priority 2005, published 2010)", "key": {"[1]": {"assay": "Stable radical elimination action (DPPH)", "conditions": "0.1 mM DPPH", "description": "0.1 mM Diphenyl-2-picrylhydrazyl (DPPH) acetonitrile (CH3CN) solution (3 mL) was placed in a glass test tube, and a DMSO solution of a test compound was added at a 1% dose (30 μL). As a control, 0.1 mM DPPH CH3CN solution (3 mL) containing DMSO (30 μL) was used and for a blank test, CH3CN (3 mL) containing DMSO (30 μL) was used. After standing the solutions at room temperature for 60 min (20 min for Examples 69, 72 and 73), the absorbance at 517 nm was measured by a spectrophotometer. A stable radical inhibitory rate when control was 100% was calculated from [(absorbance of test substance−absorbance of blank test)÷(absorbance of control−absorbance of blank test)]."}, "[2]": {"system": "brain homogenate lipid peroxidation", "assay": "Lipid peroxidation-inhibitory action (brain homogenate, MDA)", "format": "biochemical, SD rat", "conditions": "rat brain homogenate, 37° C. for 30 min", "description": "The brain was removed from male SD rat, and a 50 mM phosphate buffer (pH 7.4, 5-fold amount of brain weight) was added. The mixture was homogenized under ice-cooling for 30 sec, and centrifuged at 4° C., 3200 rpm for 10 min. The supernatant was diluted 5-fold with 50 mM phosphate buffer to give a brain homogenate. A test compound (10 μL) was placed in a glass test tube, the brain homogenate (1 mL) was added, and the mixture was incubated at 37° C. for 30 min. 20% Trichloroacetic acid (1 mL) was added to quench the reaction. The reaction mixture was centrifuged at room temperature, 4000 rpm for 10 min. Thiobarbituric acid (0.2 mL) was added to the supernatant (1 mL) and the mixture was heated at 95° C. for 15 min. The absorbance at 532 nm was measured, and lipid peroxide was quantified as malondialdehyde (MDA). The MDA level was compared between the control and the test compound-added sample, and the lipid peroxidation inhibitory rate was calculated."}, "[3]": {"system": "THP-1 cell-derived macrophage", "assay": "Cholesterol ester accumulation-inhibitory activity (THP-1 cell-derived macrophage foam cell formation)", "format": "cell-based", "conditions": "THP-1 macrophage, acetyl LDL, 3 days", "description": "THP-1 cells (DAINIPPON PHARMACEUTICAL CO., LTD.) were subcultured in RPMI-1640 medium containing 10% fetal calf serum (FBS), and cells at 6-13th passage after purchase were used. The cells were suspended in FBS-containing RPMI-1640 medium to give a suspension having a concentration of 4×10^5 cells/mL. The cell suspension was seeded on 12-well microplate by 1 mL, and treated with phorbol 12-myristate 13-acetate (PMA, 200 nM) as a differentiation inducer into macrophage. Then, acetyl LDL (400 μg/mL) separately prepared from LDL derived from plasma of a rabbit with genetic hyperlipidemia (KHC rabbit, Japan Laboratory Animals Inc.) was added. A test compound further dissolved in dimethyl sulfoxide (DMSO) and diluted with FBS-containing RPMI-1640 medium and a control solvent were applied. After cultivation in a carbon dioxide incubator for 3 days, the cells were washed with phosphate-buffered saline (pH 7.0), and the lipid was extracted with hexane-isopropanol (3:2). In addition, the cells were lysed with 1N-NaOH, and the protein content was measured. Free cholesterol and cholesterol ester in the lipid extraction sample were measured according to the method of Kunitomo et al. [Japan. J. Pharmacol., 34, 153-158 (1984)]. Cholesterol esters in the control cells and the cells treated with the test compound were compared, and the cholesterol ester accumulation inhibitory rate of the test compound was calculated."}, "[4]": {"assay": "Oral administration experiment (plasma concentration)", "format": "in vivo", "conditions": "(10 mg)/kg orally, male SD rats, plasma 0.5-6 hr", "description": "The test compound (10 mg)/kg suspended in 5% gum arabic solution was forcedly administered orally to male SD rats (body weight 200-250 g). At 0.5, 1, 2, 4, 6 hr after administration, blood was drawn without anesthesia, and heparin plasma was separated by a conventional method. The concentration of the test compound in the plasma was measured by high performance liquid chromatography."}, "liver ACAT": {"system": "liver ACAT", "assay": "ACAT inhibitory activity (rabbit liver microsome, cholesteryl oleate production)", "format": "biochemical, Japanese white rabbits", "conditions": "37° C. for 20 min", "description": "Male Japanese white rabbits (body weight 2-2.5 kg) were bred on 100 g of a high cholesterol feed (feed added with cholesterol 1%, CLEA Japan, Inc.) daily for 4 weeks and sacrificed by exsanguination under anesthesia. The liver was removed, homogenated and centrifuged at 10,000 rpm and 4° C. for 15 min. The obtained supernatant was further centrifuged at 41,000 rpm and 4° C. for 60 min to give a microsome fraction. To a 0.15 M phosphate buffer were added the microsome suspension as an enzyme specimen, dimethyl sulfoxide (DMSO) or a solution (3 μL) of a test compound in DMSO and [1-14C]-oleoyl-CoA to be a reaction substrate to the total amount of 300 μL. After incubation at 37° C. for 20 min, a mixed solution of chloroform-methanol was added to quench the reaction. Water was added thereto and mixed, and the chloroform layer was separated. The solvent was evaporated to dryness and the residue was redissolved in n-hexane. The resulting solution was subjected to thin layer chromatography using a silica gel plate. The spot of cholesteryl oleate on the silica gel plate was scraped and quantified on a liquid scintillation counter. The ACAT inhibitory activity of the test compound is shown in cholesteryl oleate production inhibitory rate (%) [level of inhibition of cholesteryl oleate production as compared to the control]."}}, "data": [{"compound": "CCCN1Cc2cc(N(C)C)ccc2C[C@H]1C(=O)Nc1cc(C)c(O)c(C)c1C", "note": "[Example 84, 7-dimethylamino-N-(4-hydroxy-2,3,5-trimethylphenyl)-2-propyl-1,2,3,4-tetrahydroisoquinoline-(3S)-carboxamide]", "values": [{"measurement": "inhibitory rate (%) (10^−4M), stable radical", "setting": "[1]; room temperature for 60 min", "result": 71.9, "unit": "%"}, {"measurement": "inhibitory rate (%) (10^−4M), lipid peroxidation", "setting": "[2]", "result": 100.9, "unit": "%"}]}, {"compound": "CCCN(C)Cc1ccc2c(c1)CN(C(=O)C(C)(C)C)[C@H](C(=O)Nc1cc(C)c(O)c(C)c1C)C2", "note": "[Example 136, 2-(2,2-dimethylpropionyl)-N-(4-hydroxy-2,3,5-trimethylphenyl)-7-(N-methylpropylamino)methyl-1,2,3,4-tetrahydroisoquinoline-(3S)-carboxamide]", "values": [{"measurement": "cholesteryl ester accumulation inhibitory rate (%) (concentration: 10^−6 M)", "setting": "[3]", "result": 66.4, "unit": "%"}, {"measurement": "inhibitory rate (%) (10^−4M), stable radical", "setting": "[1]; room temperature for 60 min", "result": 71.3, "unit": "%"}, {"measurement": "inhibitory rate (%) (10^−4M), lipid peroxidation", "setting": "[2]", "result": 89.6, "unit": "%"}]}, {"compound": "CCCCCN1Cc2ccccc2C[C@H]1C(=O)Nc1cc(C(C)(C)C)c(O)c(C(C)(C)C)c1", "note": "[Example 51, N-(3,5-di-tert-butyl-4-hydroxyphenyl)-2-pentyl-1,2,3,4-tetrahydroisoquinoline-(3S)-carboxamide]", "values": [{"measurement": "inhibitory rate (%) (10^−4M), stable radical", "setting": "[1]; room temperature for 60 min", "result": 63.8, "unit": "%"}, {"measurement": "inhibitory rate (%) (10^−4M), lipid peroxidation", "setting": "[2]", "result": 100.3, "unit": "%"}]}, {"compound": "CCN(CC)Cc1ccc2c(c1)CN(C(=O)C(C)(C)C)[C@H](C(=O)Nc1cc(C)c(O)c(C)c1C)C2", "note": "[Example 133, 7-diethylaminomethyl-2-(2,2-dimethylpropionyl)-N-(4-hydroxy-2,3,5-trimethylphenyl)-1,2,3,4-tetrahydroisoquinoline-(3S)-carboxamide]", "values": [{"measurement": "maximum blood concentration", "setting": "[4]", "result": 0.48, "unit": "µg/mL"}, {"measurement": "inhibitory rate (%) (10^−4M), stable radical", "setting": "[1]; room temperature for 60 min", "result": 65.5, "unit": "%"}]}, {"compound": "CC(C)(C)CN1Cc2ccccc2C[C@H]1C(=O)Nc1cc(C(C)(C)C)c(O)c(C(C)(C)C)c1", "note": "[Example 47, N-(3,5-di-tert-butyl-4-hydroxyphenyl)-2-(2,2-dimethylpropyl)-1,2,3,4-tetrahydroisoquinoline-(3S)-carboxamide]", "values": [{"measurement": "inhibitory rate (%) (10^−4M), stable radical", "setting": "[1]; room temperature for 60 min", "result": 66.1, "unit": "%"}, {"measurement": "inhibitory rate (%) (10^−4M), lipid peroxidation", "setting": "[2]", "result": 100.1, "unit": "%"}]}, {"compound": "Cc1cc(NC(=O)[C@@H]2Cc3ccc(CN(C)CCF)cc3CN2C(=O)C(C)(C)C)c(C)c(C)c1O", "note": "[Example 139, 2-(2,2-dimethylpropionyl)-7-(2-fluoro-N-methylethylamino)methyl-N-(4-hydroxy-2,3,5-trimethylphenyl)-1,2,3,4-tetrahydroisoquinoline-(3S)-carboxamide]", "values": [{"measurement": "cholesteryl ester accumulation inhibitory rate (%) (concentration: 10^−6 M)", "setting": "[3]", "result": 84.6, "unit": "%"}, {"measurement": "inhibitory rate (%) (10^−4M), lipid peroxidation", "setting": "[2]", "result": 99.7, "unit": "%"}]}, {"compound": "CCCCC(=O)N1Cc2ccccc2C[C@H]1C(=O)Nc1cc(C(C)(C)C)c(O)c(C(C)(C)C)c1", "note": "[Example 13, N-(3,5-di-tert-butyl-4-hydroxyphenyl)-2-pentanoyl-1,2,3,4-tetrahydroisoquinoline-(3S)-carboxamide]", "values": [{"measurement": "inhibitory rate (%) (10^−4M), lipid peroxidation", "setting": "[2]", "result": 100.1, "unit": "%"}]}, {"compound": "Cc1cc(NC(=O)[C@@H]2Cc3ccc(N(C)C)cc3CN2C(=O)C(C)C)c(C)c(C)c1O.Cl", "note": "[Example 72, 7-dimethylamino-N-(4-hydroxy-2,3,5-trimethylphenyl)-2-isobutyryl-1,2,3,4-tetrahydroisoquinoline-(3S)-carboxamide hydrochloride]", "values": [{"measurement": "liver ACAT inhibition rate (%) (concentration: 10^−6 M)", "setting": "liver ACAT", "result": 91.4, "unit": "%"}, {"measurement": "cholesteryl ester accumulation inhibitory rate (%) (concentration: 10^−6 M)", "setting": "[3]", "result": 80.5, "unit": "%"}, {"measurement": "maximum blood concentration", "setting": "[4]", "result": 0.91, "unit": "µg/mL"}, {"measurement": "inhibitory rate (%) (10^−4M), stable radical", "setting": "[1]; room temperature 20 min (Examples 69, 72 and 73)", "result": 97.0, "unit": "%"}]}, {"compound": "Cc1cc(NC(=O)[C@@H]2Cc3ccccc3CN2CC(C)(C)C)c(C)c(C)c1O.Cl", "note": "[Example 48, 2-(2,2-dimethylpropyl)-N-(4-hydroxy-2,3,5-trimethylphenyl)-1,2,3,4-tetrahydroisoquinoline-(3S)-carboxamide hydrochloride]", "values": [{"measurement": "inhibitory rate (%) (10^−4M), stable radical", "setting": "[1]; room temperature for 60 min", "result": 91.7, "unit": "%"}, {"measurement": "inhibitory rate (%) (10^−4M), lipid peroxidation", "setting": "[2]", "result": 100.5, "unit": "%"}]}, {"compound": "Cc1cc(NC(=O)[C@@H]2Cc3ccc(CNCCF)cc3CN2C(=O)C(C)(C)C)c(C)c(C)c1O.Cl", "note": "[Example 140, 2-(2,2-dimethylpropionyl)-7-(2-fluoroethylamino)methyl-N-(4-hydroxy-2,3,5-trimethylphenyl)-1,2,3,4-tetrahydroisoquinoline-(3S)-carboxamide hydrochloride]", "values": [{"measurement": "maximum blood concentration", "setting": "[4]", "result": 0.44, "unit": "µg/mL"}]}, {"compound": "CCCN(C)Cc1ccc2c(c1)CN(C(=O)C(C)C)[C@H](C(=O)Nc1cc(C)c(O)c(C)c1C)C2", "note": "[Example 138, N-(4-hydroxy-2,3,5-trimethylphenyl)-2-isobutyryl-7-(N-methylpropylamino)methyl-1,2,3,4-tetrahydroisoquinoline-(3S)-carboxamide]", "values": [{"measurement": "maximum blood concentration", "setting": "[4]", "result": 0.42, "unit": "µg/mL"}]}, {"compound": "Cc1cc(NC(=O)[C@@H]2Cc3ccccc3CN2C(=O)C(C)C)c(C)c(C)c1O", "note": "[Example 50, N-(4-hydroxy-2,3,5-trimethylphenyl)-2-isobutyryl-1,2,3,4-tetrahydroisoquinoline-(3S)-carboxamide]", "values": [{"measurement": "inhibitory rate (%) (10^−4M), lipid peroxidation", "setting": "[2]", "result": 85.7, "unit": "%"}]}, {"compound": "Cc1cc(NC(=O)[C@@H]2Cc3ccc(N4CCN(C)CC4)cc3CN2C(=O)C(C)(C)C)c(C)c(C)c1O", "note": "[Example 122, 2-(2,2-dimethylpropionyl)-N-(4-hydroxy-2,3,5-trimethylphenyl)-7-(4-methylpiperazin-1-yl)-1,2,3,4-tetrahydroisoquinoline-(3S)-carboxamide]", "values": [{"measurement": "maximum blood concentration", "setting": "[4]", "result": 0.60, "unit": "µg/mL"}, {"measurement": "inhibitory rate (%) (10^−4M), stable radical", "setting": "[1]; room temperature for 60 min", "result": 72.3, "unit": "%"}, {"measurement": "inhibitory rate (%) (10^−4M), lipid peroxidation", "setting": "[2]", "result": 75.9, "unit": "%"}]}, {"compound": "CCCCCCCC(C)(C)CN1Cc2cc(OC(C)(C)C(=O)O)ccc2C[C@H]1c1cc(C)c(O)c(C)c1C", "note": "[Example 132, 2-{[2-(2,2-dimethylnonyl)-(3S)-(4-hydroxy-2,3,5-trimethylphenyl)-1,2,3,4-tetrahydroisoquinolin-7-yl]oxy}-2-methylpropionic acid]", "values": [{"measurement": "inhibitory rate (%) (10^−4M), stable radical", "setting": "[1]; room temperature for 60 min", "result": 80.7, "unit": "%"}, {"measurement": "inhibitory rate (%) (10^−4M), lipid peroxidation", "setting": "[2]", "result": 105.6, "unit": "%"}]}, {"compound": "CCCCCC(=O)N1Cc2cc(N(C)C)ccc2C[C@H]1C(=O)Nc1cc(C)c(O)c(C)c1C.Cl", "note": "[Example 83, 7-dimethylamino-2-hexanoyl-N-(4-hydroxy-2,3,5-trimethylphenyl)-1,2,3,4-tetrahydroisoquinoline-(3S)-carboxamide hydrochloride]", "values": [{"measurement": "liver ACAT inhibition rate (%) (concentration: 10^−6 M)", "setting": "liver ACAT", "result": 97.0, "unit": "%"}, {"measurement": "cholesteryl ester accumulation inhibitory rate (%) (concentration: 10^−6 M)", "setting": "[3]", "result": 100.2, "unit": "%"}]}]}
